Measurements from PubChem BioAssay (NCI).
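Values below derive from 48-hour exposures of cells grown in 96-well plates, with endpoints linearly interpolated between the two concentrations bracketing the appropriate inhibition level. The concentration for 50% growth inhibition is given as GI50. The concentration for full growth arrest is given as TGI.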

Columns and labels:
Assay in all cases: NCI anticancer screen, dose series, 48 h
OVCAR-3 ovarian = tested on: OVCAR-3 ovarian
CCRF-CEM leukemia = tested on: CCRF-CEM leukemia
SK-OV-3 ovarian = tested on: SK-OV-3 ovarian
ACHN renal = tested on: ACHN renal
HT29 colon = tested on: HT29 colon
CAKI-1 renal = tested on: CAKI-1 renal
NCI-H460 lung = tested on: NCI-H460 lung
T-47D breast = tested on: T-47D breast

Compound | GI50 (OVCAR-3 ovarian) | TGI (OVCAR-3 ovarian) | GI50 (CCRF-CEM leukemia) | TGI (CCRF-CEM leukemia) | GI50 (SK-OV-3 ovarian) | TGI (SK-OV-3 ovarian) | GI50 (ACHN renal) | TGI (ACHN renal) | GI50 (HT29 colon) | TGI (HT29 colon) | GI50 (CAKI-1 renal) | TGI (CAKI-1 renal) | GI50 (NCI-H460 lung) | TGI (NCI-H460 lung) | GI50 (T-47D breast) | TGI (T-47D breast)
COc1cccc(-c2cc(NCc3ccc4c(c3)OCO4)nc(N)n2)c1 | 40.9 nM | 0.988 µM | 76.2 nM | > 100 µM | 52.6 nM | 0.583 µM | 240 nM | 29.3 µM | 42.3 nM | 6.84 µM | 1060 nM | 32.4 µM | 42.8 nM | 9.59 µM | 16900 nM | 50.6 µM
COc1ccc2cc(C(=O)/C=C/c3ccccc3OC)ccc2c1 | 821 nM | 3.77 µM | 1160 nM | 7.52 µM | 12700 nM | > 100 µM | 2970 nM | 15.6 µM | 1670 nM | > 45.5 µM | 862 nM | 4.88 µM |  | > 51.7 µM | 2580 nM | > 89.1 µM
Cc1cc(Cl)ccc1Nc1nc(C(F)(F)F)ccc1C(=O)N/N=C/c1c(Cl)cccc1Cl | 102 nM | 0.38 µM | 107 nM | > 100 µM | 486 nM | 3.29 µM | 298 nM | 2.03 µM | 443 nM | > 100 µM | 55.7 nM | 3.28 µM | 322 nM | 4.39 µM | 331 nM | 1.98 µM
COC(C(=O)[C@@H](O)[C@@H](C)O)[C@@H]1Cc2cc3cc(O[C@H]4C[C@@H](O[C@H]5C[C@@H](O)[C@H](O)C(C)O5)[C@H](O)C(C)O4)c(C)c(O)c3c(O)c2C(=O)[C@H]1O[C@H]1C[C@@H](O[C@H]2C[C@@H](O[C@H]3C[C@@H](O)[C@@H](O)C(C)O3)[C@@H](O)C(C)O2)[C@H](O)C(C)O1 (stereo not given in full) | 232 nM | 8.76 µM | 1840 nM | > 32.5 µM | 422 nM | > 32.5 µM | 485 nM | > 32.5 µM | 368 nM | > 32.5 µM | 5780 nM | > 32.5 µM | 104 nM | > 32.5 µM | 106 nM | > 32.5 µM
NNc1nc(-c2ccccn2)nc2sc3c(c12)CCCCCC3 | 5310 nM | 93.7 µM | 4420 nM | > 100 µM | 30900 nM | > 100 µM | 4870 nM | 63.9 µM | 5530 nM | > 100 µM | 575 nM | 25.6 µM | 4220 nM | 57.5 µM | 5010 nM | > 100 µM
O=C1/C(=c2\c3ccccc3n3c(=O)c4ccccc4nc23)Nc2ccccc21 |  | > 100 µM |  | > 100 µM |  | > 100 µM |  | > 100 µM |  | > 100 µM |  | > 100 µM |  | > 100 µM |  | > 100 µM
N=C(N)c1ccc(-c2ccc(-c3ccco3)o2)cc1F | 3060 nM | 9.77 µM | 2770 nM | 8.16 µM | 3200 nM | 11.5 µM | 1840 nM | 3.81 µM | 1290 nM | 3.3 µM | 1780 nM | 4.64 µM | 1980 nM | 4.17 µM | 2050 nM | 5.54 µM
COc1ccc2c(c1)N(CCO)C1=C(C(=O)OC1)C2c1cccc(Br)c1 (stereo not given) | 33.8 nM | 0.135 µM | 217 nM | > 100 µM | 91.3 nM | 19 µM | 82.4 nM | > 100 µM | 42.9 nM | 0.387 µM | 39.5 nM | 35.6 µM | 47.7 nM | 5.05 µM | 26100 nM | > 100 µM
O=C(O)c1cn(C2CC2)c2cc(N3CCN(C(=O)Nc4nc(-c5ccc(Cl)cc5)cs4)CC3)c(F)cc2c1=O | 2380 nM | 34.6 µM | 1220 nM | > 100 µM | 2350 nM | 8.12 µM | 1630 nM | 22 µM | 2990 nM | > 100 µM | 3810 nM | > 100 µM | 1760 nM | > 100 µM | 1650 nM | > 100 µM
CCOC(=O)c1c2c(n3cccc(F)c13)C(=O)c1ncccc1C2=O | 220 nM | 2.42 µM | 3710 nM | 37.5 µM | 223 nM | 16.3 µM | 79.1 nM | 2.43 µM | 1340 nM | 5.42 µM | 56.2 nM | 21.8 µM | 26.3 nM | 1.12 µM | 3530 nM | 25.2 µM
OCCCNC(=S)Nc1ccc(-c2nc3ccccc3s2)cc1 | 15000 nM | 59.8 µM | 16900 nM | > 100 µM | 63700 nM | > 100 µM | 21500 nM | 47.7 µM | 32200 nM | > 100 µM | 14300 nM | 40.6 µM | 25900 nM | > 100 µM | 16900 nM | > 100 µM
CCN(CC)CCCC(C)Nc1ccnc2cc(Cl)c(SCc3ccccc3)cc12 (stereo not given) | 2310 nM | 8.07 µM | 442 nM | 4.94 µM | 1930 nM | 3.69 µM | 1300 nM | 2.73 µM | 338 nM | 1.13 µM | 1190 nM | 2.94 µM | 1770 nM | 4.54 µM | 1980 nM | 4.77 µM
Cc1ccc(S(=O)(=O)C2=C3C(=C(c4ccccc4)c4ccccc43)CN(S(=O)(=O)c3ccc(C)cc3)C2)cc1 | 4340 nM | 18.8 µM | 446 nM | > 100 µM | > 100000 nM | > 100 µM | 4520 nM | 19.3 µM | 3320 nM | 69.4 µM | 11500 nM | > 100 µM | 1940 nM | 15.1 µM | 2910 nM | 31.5 µM
O=CNc1ccc2c(c1)Cc1cc([N+](=O)[O-])ccc1-2 | 1560 nM | > 100 µM | 1310 nM | > 100 µM | 4390 nM | 27.4 µM | 6520 nM | > 100 µM | 4500 nM | > 100 µM | 3290 nM | > 100 µM | 2780 nM | > 60.3 µM | > 100000 nM | > 100 µM
